Data set [1] deals with bicistronic HCV replicon (replicon RNA, GenBank Accession No. AJ242654). The experiment in a line: HCV Replicon Assay. Format: cell-based. Conditions: Hepatitis C virus, 72 h, read-out: Replicon IC50. Background: In antiviral work, replicon cells carry a viral genome segment that copies itself.

SMILES strings stand for the structures.

As for `C[C@@H](NS(=O)(=O)c1ccc(-c2c(C#N)c3ccc(CF)cc3n2C2CCC2)nc1)C(F)(F)F` [compound 319, 6-[3-cyano-1-cyclobutyl-6-(fluoromethyl)-1H-indol-2-yl]-N-[(2R)-1,1,1-trifluoropropan-2-yl]pyridine-3-sulfonamide], the melting point (usually the temperature of the solid-liquid transition) is 200 to 213 °C. Also, the IC50 (in general, the point on the concentration scale where inhibition reaches its midpoint) in data set [1] lay within 500 to 2000 nM.
Turning to `CC(C)NS(=O)(=O)c1cnc(-c2c(C#N)c3ccc(C4CCC4)cc3n2C2CCC2)nc1` [compound 265, 2-(3-cyano-1,6-dicyclobutyl-1H-indol-2-yl)-N-(propan-2-yl)pyrimidine-5-sulfonamide], the melting point is 192 to 194 °C. The IC50 in data set [1] fell in the range of 500 to 2000 nM.
For `Cc1ccc2c(C#N)c(-c3ncc(S(=O)(=O)N[C@@H](C)C(F)(F)F)cn3)n(C3CCCCC3)c2c1` [compound 605, 2-(3-cyano-1-cyclohexyl-6-methyl-1H-indol-2-yl)-N-[(2S)-1,1,1-trifluoropropan-2-yl]pyrimidine-5-sulfonamide], in that order: 257 to 260 °C and < 500 nM.
`N#Cc1c(-c2ncc(S(=O)(=O)NC(CF)CF)cn2)n(C2CCC2)c2cc(C3CC3)ccc12` [compound 126, 2-(3-cyano-1-cyclobutyl-6-cyclopropyl-1H-indol-2-yl)-N-(1,3-difluoropropan-2-yl)pyrimidine-5-sulfonamide]: the melting point lay within 165 to 168 °C. For the same compound, the IC50 in data set [1] was < 500 nM.
For `NC(=O)c1c(-c2ccc(S(N)(=O)=O)cn2)n(C2CCC2)c2cc(OC(F)F)ccc12` [compound 568, 1-cyclobutyl-6-(difluoromethoxy)-2-(5-sulfamoylpyridin-2-yl)-1H-indole-3-carboxamide], in that order: 230 to 231 °C and 2000 to 5000 nM.
The matching figures for `Cc1ccc2c(C#N)c(-c3ncc(S(=O)(=O)NC(CF)CF)cn3)n(C(C)C)c2c1` [compound 134, 2-[3-cyano-6-methyl-1-(propan-2-yl)-1H-indol-2-yl]-N-(1,3-difluoropropan-2-yl)pyrimidine-5-sulfonamide]: 213 to 215 °C and < 500 nM.
The matching figures for `Cc1ccc2c(C#N)c(-c3ccc(S(=O)(=O)NC(CF)CF)cn3)n(CC3CC3)c2c1` [compound 81, 6-[3-cyano-1-(cyclopropylmethyl)-6-methyl-1H-indol-2-yl]-N-(1,3-difluoropropan-2-yl)pyridine-3-sulfonamide]: 175 to 182 °C and < 500 nM.
On to `Cc1cc2c(cc1F)c(C#N)c(-c1ccc(S(=O)(=O)N[C@@H](C)C(F)(F)F)cn1)n2-c1ccncc1F` [compound 1014, 6-[3-cyano-5-fluoro-1-(3-fluoropyridin-4-yl)-6-methyl-1H-indol-2-yl]-N-[(2S)-1,1,1-trifluoropropan-2-yl]pyridine-3-sulfonamide], for which the melting point was 204.2 to 210.5 °C. The IC50 in data set [1] is < 500 nM.
The matching figures for `CCc1cc2c(cc1F)c(C#N)c(-c1ccc(S(=O)(=O)N[C@H](C)C(F)(F)F)cn1)n2C1CCCC1` [compound 632, 6-(3-cyano-1-cyclopentyl-6-ethyl-5-fluoro-1H-indol-2-yl)-N-[(2R)-1,1,1-trifluoropropan-2-yl]pyridine-3-sulfonamide]: 205.5 to 206 °C and < 500 nM.
The matching figures for `N#Cc1c(-c2ccc(S(=O)(=O)NC(CF)CF)cn2)n(C2CCCC2)c2cc(OC(F)F)ccc12` [compound 49, 6-[3-cyano-1-cyclopentyl-6-(difluoromethoxy)-1H-indol-2-yl]-N-(1,3-difluoropropan-2-yl)pyridine-3-sulfonamide]: 177 to 178 °C and < 500 nM.
On to `Cc1nc(NS(=O)(=O)C(C)(C)C)ccc1-c1c(C(N)=O)c2cc(F)c(OC(F)F)cc2n1[C@@H](C)C1CC1` [compound 1096, 2-{6-[(tert-butylsulfonyl)amino]-2-methylpyridin-3-yl}-1-[(1S)-1-cyclopropylethyl]-6-(difluoromethoxy)-5-fluoro-1H-indole-3-carboxamide], for which the melting point was in the range of 147 to 151 °C. Besides, in data set [1], the IC50 is < 500 nM.
`CCc1ccc2c(c1)c(C#N)c(-c1ccc(S(=O)(=O)N[C@@H](C)C(F)(F)F)cn1)n2C1CCCC1` [compound 374, 6-(3-cyano-1-cyclopentyl-5-ethyl-1H-indol-2-yl)-N-[(2S)-1,1,1-trifluoropropan-2-yl]pyridine-3-sulfonamide] displayed a melting point of 159.5 to 160.5 °C. The IC50 in data set [1] was < 500 nM.
With `CCc1cc2c(cc1F)c(C#N)c(-c1ccc(S(=O)(=O)NC(C)(C)C)cn1)n2-c1ncccn1` [compound 855, N-tert-butyl-6-[3-cyano-6-ethyl-5-fluoro-1-(pyrimidin-2-yl)-1H-indol-2-yl]pyridine-3-sulfonamide], the melting point is 208 to 210 °C. Further, the IC50 in data set [1] is < 500 nM.
The matching figures for `C[C@@H](NS(=O)(=O)c1ccc(-c2c(C#N)c3cc(F)c(OC(F)F)cc3n2C2CCCC2)nc1)C(F)(F)F` [compound 713, 6-[3-cyano-1-cyclopentyl-6-(difluoromethoxy)-5-fluoro-1H-indol-2-yl]-N-[(2R)-1,1,1-trifluoropropan-2-yl]pyridine-3-sulfonamide]: 197 to 200 °C and < 500 nM.
`CC(C)(C)NS(=O)(=O)c1ccc(-c2c(C#N)c3cc(Cl)ccc3n2C2CCC2)nc1` [compound 15, N-tert-butyl-6-(5-chloro-3-cyano-1-cyclobutyl-1H-indol-2-yl)pyridine-3-sulfonamide]: the melting point was in the range of 195 to 197 °C. The IC50 in data set [1] was 500 to 2000 nM.
For `N#Cc1ccc2c(C#N)c(-c3ncc(S(=O)(=O)NC(CF)CF)cn3)n(C3CCCC3)c2c1` [compound 469, 2-(3,6-dicyano-1-cyclopentyl-1H-indol-2-yl)-N-(1,3-difluoropropan-2-yl)pyrimidine-5-sulfonamide], in that order: 246 to 247 °C and 500 to 2000 nM.
In turn, `CCc1cc2c(cc1F)c(C#N)c(-c1ccc(S(=O)(=O)N[C@@H](C)C(F)(F)F)cn1)n2-c1ccc(Cl)cn1` [compound 966, 6-[1-(5-chloropyridin-2-yl)-3-cyano-6-ethyl-5-fluoro-1H-indol-2-yl]-N-[(2S)-1,1,1-trifluoropropan-2-yl]pyridine-3-sulfonamide] had a melting point of 252 to 259 °C. In addition, in data set [1], the IC50 is < 500 nM.
The matching figures for `C[C@H](NS(=O)(=O)c1ccc(-c2c(C#N)c3cc(Br)c(O)cc3n2C2CCC2)nc1)C(F)(F)F` [compound 684, 6-(5-bromo-3-cyano-1-cyclobutyl-6-hydroxy-1H-indol-2-yl)-N-[(2S)-1,1,1-trifluoropropan-2-yl]pyridine-3-sulfonamide]: 223 to 224 °C and 500 to 2000 nM.
For the compound `N#Cc1c(-c2ccc(S(=O)(=O)NC(CF)CF)cn2)n(-c2ccccn2)c2cc(OC(F)F)ccc12` [compound 249, 6-[3-cyano-6-(difluoromethoxy)-1-(pyridin-2-yl)-1H-indol-2-yl]-N-(1,3-difluoropropan-2-yl)pyridine-3-sulfonamide], the melting point lay in the range of 186 to 190 °C. In addition, in data set [1], the IC50 is < 500 nM.
Turning to `N#Cc1c(-c2ccc(S(=O)(=O)NC(CF)CF)cn2)n(C2CCCCC2)c2cc(OC(F)(F)F)ccc12` [compound 105, 6-[3-cyano-1-cyclohexyl-6-(trifluoromethoxy)-1H-indol-2-yl]-N-(1,3-difluoropropan-2-yl)pyridine-3-sulfonamide], the melting point was 146 to 148 °C. In addition, in data set [1], the IC50 is < 500 nM.
The matching figures for `Cc1cc2c(cc1F)c(C#N)c(-c1ccc(S(=O)(=O)N[C@@H](C)C(F)(F)F)cn1)n2-c1ccc([N+](=O)[O-])cn1` [compound 744, 6-[3-cyano-5-fluoro-6-methyl-1-(5-nitropyridin-2-yl)-1H-indol-2-yl]-N-[(2S)-1,1,1-trifluoropropan-2-yl]pyridine-3-sulfonamide]: 260 to 263 °C and < 500 nM.
For `Cc1ccc2c(C#N)c(-c3ccc(S(=O)(=O)N[C@@H](C)C(F)(F)F)cn3)n(C3CCC3)c2c1F` [compound 421, 6-(3-cyano-1-cyclobutyl-7-fluoro-6-methyl-1H-indol-2-yl)-N-[(2S)-1,1,1-trifluoropropan-2-yl]pyridine-3-sulfonamide], in that order: 210 to 220 °C and < 500 nM.
As for `CCc1cc2c(cc1F)c(C#N)c(-c1ccc(S(=O)(=O)N[C@@H](C)C(F)(F)F)c(C)n1)n2-c1ccccn1` [compound 887, 6-[3-cyano-6-ethyl-5-fluoro-1-(pyridin-2-yl)-1H-indol-2-yl]-2-methyl-N-[(2S)-1,1,1-trifluoropropan-2-yl]pyridine-3-sulfonamide], the melting point lay in the range of 219 to 224 °C. Also, in data set [1], the IC50 is < 500 nM.
Take `C[C@@H](NS(=O)(=O)c1ccc(-c2c(C(N)=O)c3cc(F)c(OC(F)F)cc3n2C2CCCC2)nc1)C(F)(F)F` [compound 718, 1-cyclopentyl-6-(difluoromethoxy)-5-fluoro-2-(5-{[(2R)-1,1,1-trifluoropropan-2-yl]sulfamoyl}pyridin-2-yl)-1H-indole-3-carboxamide]: the melting point is 218 to 220 °C. Besides, the IC50 in data set [1] was < 500 nM.
For `Cc1cc2c(C#N)c(-c3ccc(S(=O)(=O)N[C@H](C)C(F)(F)F)cn3)n(C3CCC3)c2cc1Cl` [compound 510, 6-(6-chloro-3-cyano-1-cyclobutyl-5-methyl-1H-indol-2-yl)-N-[(2R)-1,1,1-trifluoropropan-2-yl]pyridine-3-sulfonamide], in that order: 200 to 200.5 °C and 500 to 2000 nM.
The matching figures for `Cc1cc2c(cc1Cl)c(C#N)c(-c1ccc(S(=O)(=O)N[C@@H](C)C(F)(F)F)cn1)n2-c1ncccn1` [compound 785, 6-[5-chloro-3-cyano-6-methyl-1-(pyrimidin-2-yl)-1H-indol-2-yl]-N-[(2S)-1,1,1-trifluoropropan-2-yl]pyridine-3-sulfonamide]: 210 to 212 °C and < 500 nM.

For the origin of these results see patent US8735414B2 (priority 2009, dated 2014).
